Source: US20190091248A1, “AGENT FOR INCREASING INTESTINAL BUTYRIC ACID AND PROLIFERATION AGENT FOR BUTYRIC ACID-PRODUCING BACTERIA” (B FOOD SCIENCE CO., LTD., priority 2016, published 2019)

How the values were obtained:
[1] = tested on: ulcerative colitis model rats induced by dextran sulfate sodium (DSS); settings: injection into the intestine; cited from earlier work
[2] = tested on: fatty degeneration and inflammation in the liver by the intake of high-fat meals; settings: oral administration, 0.02 g/kg body weight per day; cited from earlier work
[3] = tested on: childhood diabetes model rat; settings: intraperitoneal, 500 mg/kg of body weight per day (in terms of the dose of sodium butyrate); cited from earlier work
[4] = tested on: LIM1215, human colorectal cancer cells; settings: final concentration of 1 mmol/L; cited from earlier work
[5] = tested on: obesity induced by high-fat meals; settings: cited from earlier work
[6] = tested on: short chain fatty acids in cecal contents; assay: Amount of intestinal short chain fatty acid in cecal contents upon intake of 1-kestose (GC/MS); format: in vivo, SD rats; settings: for concentration of butyric acid in cecal contents: 30 days ad libitum; for amount of butyric acid in cecal contents: 30 days, calculated from concentration, Group A 781.14 μg
Protocol: (1) Breeding of Rats with Giving Oral Intake of 1-Kestose
The feeds containing 0, 0.5, 1.0, 2.5, and 5% by mass of 1-kestose were prepared by CLEA Japan, Inc. on commission. The composition of the feeds is described below. 40 SD rats (Japan SLC, Inc.) were divided into 5 groups of 8 animals and designated as Groups A to E. The rats were maintained for 30 days with ad libitum feeding of the feed without 1-kestose to Group A and of the ones with 1-kestose to Groups B to E, respectively. The rats were maintained under conditions at 23±1° C. in temperature with 12 hours of light periods (from 8:00 to 20:00) and 12 hours of dark periods (from 20:00 to 8:00).
[Composition (in % by mass) of feeds] Cornstarch 39.7486, milk casein 20, pregelatinized cornstarch 13.2, granulated sugar and/or 1-kestose (99% by mass in purity, B Food Science Co., Ltd.) 10, purified soybean oil 7, cellulose powder 5, mineral mixture 3.5, vitamin mixture 1, L-cystine 0.3, choline bitartrate 0.25, tert-butylhydroquinone 0.0014.
The rats in each group described in Example 1 (1) were dissected and their ceca were extracted. The contents of the ceca were collected and weighed. The concentrations of short chain fatty acids (butyric acid, propionic acid, isobutyric acid, acetic acid, isovaleric acid, and valeric acid) in the cecal contents were measured with a gas chromatography-mass spectrometer (GC/MS). The amounts of the short chain fatty acids in the cecal contents were calculated from the results of the measurement of the short chain fatty acid concentrations. Subsequently, the means of concentrations and amounts of short chain fatty acids for each group were calculated and shown in bar graphs. The results are illustrated in FIGS. 1 to 3.

[7] = tested on: Clostridium cluster-XIVa and Clostridium cluster-XIVb (a group of butyric acid-producing bacteria); assay: Real-time PCR of 16S rDNA copy number in cecal contents upon intake of 1-kestose; format: in vivo, SD rats
Protocol: (§1) The amounts of the following 4 microorganisms in the cecal contents of rats in Groups A and E described in Example 1 (1) were measured by real-time PCR.
2. Clostridium cluster-XIVa and Clostridium cluster-XIVb (a group of butyric acid-producing bacteria),
(§2) Specifically, the cecal contents of Groups A and E were disrupted with the bead beating system “FastPrep FP100A” (MP Biomedicals, LLC.). Subsequently, genomic DNA was extracted with the nucleic acid extraction instrument “Magtration® System 12GC” and its exclusive reagent “MagDEA® DNA 200” (Precision System Science Co., Ltd.) according to the instructions. Using this genomic DNA as a template, the real-time PCR was performed with primers specific for the 16S rDNAs of the aforementioned 4 microorganisms, the real-time PCR reagent “SYBR® Premix Ex Taq II (Tli RNaseH Plus)” (Takara), and the real-time PCR device “Rotor-Gene Q” (QIAGEN N.V.) and the copy numbers of the 16S rDNA from each microorganism per 1 g of the cecal contents were determined. The means and standard deviation of the copy numbers were calculated for each group and illustrated in bar graphs.
(§3) The sequences of the primers specific for 16S rDNA of each microorganism are listed below.
(§4) The standard curve was made from the result of real-time PCR for each microorganism under the same conditions using a plasmid DNA in which a part of the following sequence is incorporated as a template.
2. Clostridium clusters-XIVa and -XIVb (a group of butyric acid-producing bacteria); 16S rDNA sequence (SEQ ID NO: 10) of Clostridium clostridioforme JCM1291T

[8] = tested on: The genus Bifidobacterium; assay: as above; format: in vivo, SD rats; settings: Group E
Protocol: as §1
1. The genus Bifidobacterium,
as §2, §3, §4
1. […]

[9] = tested on: The genus Lactobacillus; assay: as above; format: in vivo, SD rats
Protocol: as §1
3. The genus Lactobacillus
as §2, §3, §4
3. […]

[10] = tested on: Akkermansia muciniphila; assay: as above; format: in vivo, SD rats
Protocol: as §1
4. Akkermansia muciniphila
as §2, §3, §4
4. […]

[11] = Food processing and ingredients, Vol. 49, No. 12, p. 9, 2014; cited from earlier work
[12] = Group B: feed with 0.5% by mass 1-kestose
[13] = Group C: feed with 1.0% by mass 1-kestose
[14] = Group D: feed with 2.5% by mass 1-kestose
[15] = Group E: feed with 5% by mass 1-kestose
[16] = Groups B, C, D and E, cecal contents

SMILES: CCCC(=O)O [butyric acid]
- inflammatory repair effect [1]: significant inflammatory repair effect
- fatty degeneration and inflammation in the liver by the intake of high-fat meals [2]: suppress
- values of AST, ALT, cholesterol, LDL in blood, neutral fat and fasting blood sugar levels, and insulin resistance index (HOMA-IR) [2]: normalize
- function and proliferation of β cells [3]: improve
- glucose homeostasis [3]: improve
- β cell death [3]: decrease
- proliferation rate [4]: decrease
- proliferation time [4]: extend
- body weight and the body fat percentage ([5]; oral, 5 g/kg body weight per day (in terms of sodium butyrate), mice in which obesity has been induced by high-fat meals): reduce
- weight gain and increase of the body fat percentage by eating of high-fat meals ([5]; oral, 5 g/kg body weight per day (in terms of sodium butyrate), mice that are not obese): suppress

SMILES: OC[C@H]1O[C@@](CO)(OC[C@@]2(O[C@H]3O[C@H](CO)[C@@H](O)[C@H](O)[C@H]3O)O[C@H](CO)[C@@H](O)[C@@H]2O)[C@@H](O)[C@@H]1O [1-kestose]
- increase of butyric acid amount relative to Group A [6, 12]: approximately 1.4 times of that in Group A
- increase of butyric acid concentration relative to Group A [6, 12]: approximately 1.4 times of that in Group A
- concentration of butyric acid in cecal contents ([6]; Group B: feed with 0.5% by mass 1-kestose, daily intake 0.27 g/kg body weight, Group A (no 1-kestose) 205.86 μg/g): 288.09 µg/g
- amount of butyric acid in cecal contents [6, 12]: 1069.37 µg
- increase of butyric acid amount relative to Group A [6, 13]: approximately 1.4 times of that in Group A
- increase of butyric acid concentration relative to Group A [6, 13]: approximately 1.5 times of that in Group A
- concentration of butyric acid in cecal contents ([6]; Group C: feed with 1.0% by mass 1-kestose, Group A 205.86 μg/g): 314.59 µg/g
- amount of butyric acid in cecal contents [6, 13]: 1107.92 µg
- increase of butyric acid amount relative to Group A [6, 14]: approximately 3.6 times of that in Group A
- increase of butyric acid concentration relative to Group A [6, 14]: approximately 3.7 times of that in Group A
- concentration of butyric acid in cecal contents ([6]; Group D: feed with 2.5% by mass 1-kestose, Group A 205.86 μg/g): 754.17 µg/g
- amount of butyric acid in cecal contents [6, 14]: 2891.65 µg
- increase of butyric acid amount relative to Group A [6, 15]: approximately 14.5 times of that in Group A
- increase of butyric acid concentration relative to Group A [6, 15]: approximately 10 times of that in Group A
- concentration of butyric acid in cecal contents ([6]; Group E: feed with 5% by mass 1-kestose, 1.34 g/kg body weight, Group A 205.86 μg/g): 2005.26 µg/g
- amount of butyric acid in cecal contents [6, 15]: 11943.88 µg
- concentrations and amounts of acetic acid in comparison with Group A [6, 16]: significantly increased
- concentrations and amounts of isobutyric acid in comparison with Group A [6, 16]: significantly decreased
- concentrations and amounts of isovaleric acid in comparison with Group A [6, 16]: not significantly different
- concentrations and amounts of propionic acid in comparison with Group A [6, 16]: not significantly different
- concentrations and amounts of valeric acid in comparison with Group A [6, 16]: significantly decreased
- concentrations and amounts of butyric acid in comparison with Group A ([6]; any of Groups B to E (0.5 to 5% by mass 1-kestose in feed)): markedly increased
- copy number of 16S rDNA from the group of butyric acid-producing bacteria relative to Group A ([7]; Group E): approximately 5 times of that in Group A
- copy number of 16S rDNA from the group of butyric acid-producing bacteria, comparison with Group A in words ([7]; Group E): significantly increased
- copy number of 16S rDNA from Clostridium cluster XIV (a group of butyric acid-producing bacteria) ([7]; Group E (5% by mass 1-kestose in feed, 30 days), Group A 5071250000): 25287500000 per 1 g of the cecal contents
- copy number of 16S rDNA from the genus Bifidobacterium in comparison with Group A [8]: significantly increased
- copy number of 16S rDNA from Lactobacillus, Group E versus Group A [9]: did not have significant difference
- copy number of 16S rDNA from Akkermansia muciniphila, Group E versus Group A [10]: did not have significant difference
- toxicity in mutagenicity, acute toxicity, subchronic toxicity, and chronic toxicity tests [11]: no toxicity

SMILES: CCCC(=O)[O-].[Na+] [sodium butyrate]
- increase of body weight and increase of the body fat percentage ([5]; mice fed on high-fat meals into which 5% by mass is mixed): suppressed
